Laboratory results as given in a melting point compilation (Tetko et al.).

| SMILES | melting point |
| --- | --- |
| COc1ccc(S(N)(=O)=O)cc1[N+](=O)[O-] | 139 to 141 °C |
| NS(=O)(=O)c1ccc(CC(=O)O)s1 | 128 to 130 °C |
| N#Cc1ccc(NCC(=O)O)cc1 | 225 to 227 °C |
| Cc1ccc2[nH]cc(CCC(=O)O)c2c1 | 126 to 128 °C |
| C=CCN1C(=O)C(=O)c2ccccc21 | 108 to 110 °C |
| CC(C)c1ccc(-n2nnnc2S)cc1 | 100 to 102 °C |
| O=C1c2ccccc2C(=O)N1CCCS(=O)(=O)Cl | 59 to 61 °C |
| CC1Oc2c(ccc(Cl)c2Cl)C1=O (centres undefined) | 99 to 101 °C |
| CC(C)(C)C(=O)N1CCC(=O)CC1 | 94 to 96 °C |
| CC(=O)OCc1ccc(S(=O)(=O)C(F)F)cc1 | 75 to 77 °C |
| C#CCn1c2ccccc2c2ccccc21 | 103 to 105 °C |
| Cc1cc(NC(=O)C(C)SCC(=O)O)no1 (centres undefined) | 125 to 127 °C |
| CC1(C)CCC(CC(=O)O)CC1 | 45 to 47 °C |
| CCCCn1c(CCC(=O)O)nc2cc(S(=O)(=O)N3CCOCC3)ccc21 | 136 to 138 °C |
| CC(C)NC(CCO)C1CCCCC1 (centres undefined) | 35 to 37 °C |
| Nc1cc(C(F)(F)F)ccc1C(=O)O | 175 to 176 °C |
| CC(O)CNS(=O)(=O)c1ccc(C(=O)O)cc1 (centres undefined) | 208 to 210 °C |
| CS(=O)(=O)c1nc(C(=O)O)c2ccccn12 | 259 to 261 °C |
| Nc1cc(CC2CCCCC2)no1 | 106 to 108 °C |
| COC(=O)C(N)c1ccc(OC)cc1 (centres undefined) | 59 to 61 °C |
| O=S(=O)(Cl)c1c(Cl)ccnc1Cl | 79 to 81 °C |
| COCCS(=O)(=O)c1ccc(C(=O)O)cc1 | 160 to 162 °C |
| O=C(O)CCc1ncc(-c2ccc(F)cc2F)o1 | 169 to 171 °C |
| COc1ccc(Cl)cc1C(F)(F)C(=O)O | 110 to 112 °C |

| SMILES | melting point |
| --- | --- |
| COc1ccc(CCl)cc1C#N | 99 to 101 °C |
| Nc1ccc(Cl)c(S(=O)(=O)N2CCCCC2)c1 | 92 to 96 °C |
| Cc1cccc(COc2ccccc2C(=O)O)c1 | 155 to 157 °C |
| N#CC=C(Cl)c1ccccc1 | 32 to 34 °C |
| O=C(Nc1cccc(Cl)c1N1CCOCC1)OCC(F)(F)F | 74 to 76 °C |
| CC(C)c1cc(Br)cc([N+](=O)[O-])c1N | 39 to 41 °C |
| O=C(O)C1CCC(NC(=O)C2CCCC2)CC1 (centres undefined) | 161 to 163 °C |
| Cc1cc(S(=O)(=O)Cl)cnc1Cl | 54 to 56 °C |
| COc1cc(C(=O)O)ccc1OCc1ccccn1 | 149 to 151 °C |
| O=C(CCl)Nc1cc(C(F)(F)F)ccc1Cl | 71 to 73 °C |
| CCc1ccc(C(=O)O)s1 | 60 to 62 °C |
| Cc1nc(-c2ccc(S(N)(=O)=O)cc2)co1 | 245 to 247 °C |
| N#CC1(N2CCN(C(=O)CCl)CC2)CCCCC1 | 97 to 99 °C |
| NC(=O)C1CCCN(C(=O)CCl)C1 (centres undefined) | 124 to 126 °C |
| Cc1cc(-c2csc(N)n2)c(F)cc1F | 219 to 221 °C |
| CC(=O)c1cc(C(=O)O)n(C)c1 | 177 to 181 °C |
| N#Cc1ccc(N2CCN(c3ccccc3)CC2)nc1 | 131 to 133 °C |
| Nc1nc2cc3c(cc2s1)OCCO3 | 203 to 205 °C |
| N#CCC(=O)N1CCN(C(c2ccccc2)c2ccccc2)CC1 | 110 to 112 °C |
| COC(=O)c1cccc(-c2cccc(C(=O)OC)c2)c1 | 99 to 101 °C |
| O=C(O)C(Sc1ccc(F)cc1)c1ccccc1 (centres undefined) | 84 to 86 °C |
| Cc1n[nH]c(SCC(=O)O)n1 | 228 to 230 °C |
| CCOC(=O)c1ccc(S(=O)(=O)N2CCC(C(=O)O)CC2)cc1 | 219 to 221 °C |
| Cc1nn2c(C=O)c(C(C)C)nc2s1 | 40 to 42 °C |

| SMILES | melting point |
| --- | --- |
| Nc1ccc2nc(N3CCOCC3)oc2c1 | 176 to 178 °C |
| Cc1cc(C=O)cc(C)c1OCc1ccccc1Cl | 58 to 60 °C |
| CS(=O)(=O)c1cccc(C(=O)c2ccc(F)c(F)c2)c1 | 122 to 124 °C |
| CSc1ccc(C#N)c(Cl)c1 | 117 to 119 °C |
| CC(C)(C)CNC(=O)Nc1ccc(Cl)c(C(=O)O)c1 | 208 to 210 °C |
| NC(=O)C1CCCCS1 (centres undefined) | 164 to 166 °C |
| CCC(C)Oc1ccc(C(=O)O)cc1 (centres undefined) | 118 to 120 °C |
| CCOC(=O)/C(C#N)=C/Nc1ccccc1OCC | 141 to 143 °C |
| N#Cc1cccc(-n2ccnc2)n1 | 97 to 99 °C |
| NC(=S)C1(NC(=O)c2ccccc2)CCCC1 | 189 to 191 °C |
| Cc1nn(-c2ccc(Cl)cc2)c2sc(C(=O)O)cc12 | 230 to 238 °C |
| N#Cc1ccccc1Oc1ccccn1 | 72 to 74 °C |
| Cc1ccccc1C(=O)C=O | 63 to 65 °C |
| O=C1CN(C(=O)CCl)c2ccccc2N1 | 114 to 119 °C |
| COc1ccc2c(c1)NC(=O)C(C)O2 (centres undefined) | 138 to 140 °C |
| Cc1ccc(Br)c(C(=O)O)c1 | 139 to 141 °C |
| Cc1ccccc1N1C(=O)c2ccc(C(=O)O)cc2C1=O | 234 to 236 °C |
| O=C(NCCO)c1ccc(Br)cn1 | 98 to 100 °C |
| O=C(O)CN1C(=O)CSc2ccccc21 | 151 to 153 °C |
| O=C(O)CN1C(=O)CCCc2ccccc21 | 141 to 143 °C |
| O=C(O)CSc1ccc(F)c(F)c1 | 62 to 64 °C |
| CSCCC(NC(=O)COc1ccccc1)C(=O)O (centres undefined) | 122 to 130 °C |
| COc1ccc(C(=O)Oc2ccc(C=O)cc2OC)cc1 | 95 to 98 °C |
| Sc1nnnn1CC1CCCO1 (centres undefined) | 28 to 30 °C |

| SMILES | melting point |
| --- | --- |
| O=S1(=O)CCC(Nc2ccccc2)C1 (centres undefined) | 119 to 123 °C |
| O=C1C(Br)=CC2C1C1C=CC2(Br)C12OCCO2 (centres undefined) | 171 to 173 °C |
| O=C(O)C1COc2ccccc21 (centres undefined) | 101 to 103 °C |
| C=CCn1c(S)nnc1C1CCS(=O)(=O)C1 (centres undefined) | 101 to 103 °C |
| CC(=O)CC(=O)Nc1cccc(F)c1 | 81 to 83 °C |
| COc1cc(C)ccc1Oc1ccc(F)cc1N | 60 to 62 °C |
| c1ccc(OC2CCNCC2)cc1 | 34 to 36 °C |
| CC(=O)Nc1ncc(-c2ccc(O)cc2)s1 | 218 to 220 °C |
| CN(C)c1ccc(Cn2nccc2N)cc1 | 60 to 62 °C |
| COc1cc(NC(C)=O)ccc1I | 138 to 140 °C |
| CCNS(=O)(=O)c1ccc(C(=O)O)cc1 | 219 to 221 °C |
| O=C(O)c1cccc(S(=O)(=O)Nc2ccc(F)cc2)c1 | 140 to 142 °C |
| O=C(O)c1ccc(Oc2cccc(Cl)c2)cc1 | 132 to 134 °C |
| O=c1[nH]c2ccccc2n1C1=CCCCC1 | 181 to 183 °C |
| CCCn1c(=O)[nH]c(=O)c2c(C(=O)O)cc(-c3ccccc3)nc21 | 230 to 232 °C |
| COc1ccc(NC(=O)NCCC(=O)O)cc1 | 174 to 176 °C |
| N#Cc1ccc(Cn2cnc3ccccc32)cc1 | 103 to 105 °C |
| Clc1ccnc2ccc(Br)cc12 | 111 to 113 °C |
| CC(C)(O)CN1CCN(C(=O)OC(C)(C)C)CC1 | 33 to 35 °C |
| COc1ccc2cncnc2c1 | 83 to 85 °C |
| Cc1cc(C(=O)O)c(F)cc1F | 159 to 161 °C |
| CC(C)CNC(=O)c1ccc(N)cc1Cl | 100 to 102 °C |
| Cc1cc(C)c2c(C)c(C(=O)O)sc2n1 | 278 to 280 °C |
| O=S(=O)(Cl)C1CCOCC1 | 34 to 36 °C |

| SMILES | melting point |
| --- | --- |
| O=C(O)Cc1csc(-c2cccnc2)n1 | 115 to 117 °C |
| O=[N+]([O-])c1cn[nH]c1C1CC1 | 95 to 97 °C |
| CN(C)c1nc2sc(C(=O)O)cc2s1 | 205 to 207 °C |
| O=C(CC(=O)C(F)(F)F)c1ccncc1 | 255 to 257 °C |
| Cc1nn2c(S)nnc2nc1O | 305 to 307 °C |
| COCCC(NC(C)=O)C(=O)O (centres undefined) | 152 to 154 °C |
| COc1ccc(Br)c(C(=O)O)c1N | 139 to 141 °C |
| O=C(O)C1CSCCS1 (centres undefined) | 58 to 60 °C |
| Cc1csc(-c2ccc(C(=O)O)cc2)n1 | 208 to 210 °C |
| O=C(O)c1cc(Cl)c2c(c1)OCCCO2 | 195 to 197 °C |
| CCS(=O)(=O)c1ccc(Cl)cc1C(=O)O | 104 to 106 °C |
| O=[N+]([O-])c1cccc(C(F)F)c1Br | 29 to 31 °C |
| NNC(=O)CCN1CCN(c2ccccc2)CC1 | 120 to 122 °C |
| O=C(O)CSCc1cccc(Cl)c1 | 74 to 76 °C |
| CC1CC1C(=O)NN (centres undefined) | 85 to 87 °C |
| Oc1ccc(-c2noc(C3CC3)n2)cc1 | 149 to 151 °C |
| CS(=O)(=O)Nc1cccc(I)c1 | 119 to 121 °C |
| Cc1nc(-c2ccc(O)cc2)no1 | 186 to 188 °C |
| COc1cc(N)c(C(=O)O)c(OC)c1 | 106 to 108 °C |
| N#CCc1cnn(-c2ccccc2)c1 | 38 to 40 °C |
| COC(=O)c1ccc(C(F)(F)F)cc1N | 58 to 60 °C |
| CCN(CC)C(=O)N1CCC(C(=O)O)CC1 | 96 to 98 °C |
| Cc1nn(-c2ncc(C(F)(F)F)cc2Cl)c(C(F)(F)F)c1C(=O)O | 167 to 169 °C |
| CC(C)c1cc(C(=O)O)n(C)n1 | 158 to 160 °C |

| SMILES | melting point |
| --- | --- |
| O=C(O)c1nc(=O)[nH][nH]1 | 202 to 204 °C |
| COc1ccc(/C=C/C(=O)O)cc1S(N)(=O)=O | 257 to 259 °C |
| Cn1cnc(-c2cccc(N)c2)n1 | 184 to 186 °C |
| O=C(CCl)NCCCc1ccccc1 | 76 to 79 °C |
| CCC(C(=O)O)n1nnc(-c2ccc(Cl)cc2)n1 (centres undefined) | 184 to 186 °C |
| O=C(CCl)NC(=O)NCc1ccco1 | 128 to 130 °C |
| COc1ccc(NC(=O)OC(C)(C)C)c(N)c1 | 116 to 118 °C |
| CC1Cc2cc(S(=O)(=O)Cl)ccc2O1 (centres undefined) | 73 to 75 °C |
| Cc1ccc(S(=O)(=O)Cl)cc1C | 36 to 38 °C |
| Cc1ncc(NC(=O)OC(C)(C)C)s1 | 147 to 149 °C |
| CC(=O)CC(=O)Nc1ccc(I)cc1 | 142 to 144 °C |
| Cn1cc(C=O)cn1 | 31 to 33 °C |
| COc1ccc(C(N)Cc2ccc(F)cc2)cc1 (centres undefined) | 47 to 49 °C |
| O=C1CCCc2cc(S(=O)(=O)Cl)ccc2N1 | 208 to 210 °C |
| Oc1ccc(-n2cnnn2)cc1 | 209 to 211 °C |
| O=C(O)Cc1cc(=O)[nH]c(=O)[nH]1 | 324 to 326 °C |
| CC(c1ccccc1)n1c(S)nnc1-c1ccccc1 (centres undefined) | 201 to 203 °C |
| CCOC(C)c1ncc(C(=O)O)s1 (centres undefined) | 112 to 114 °C |
| Nc1nc(-c2ccccn2)cs1 | 135 to 137 °C |
| COCCOc1ccc(Cl)cc1S(N)(=O)=O | 124 to 126 °C |
| NNC(=O)c1cnccn1 | 170 to 172 °C |
| NNC(=O)Cn1ccc(C(F)(F)F)n1 | 157 to 159 °C |
| NNC(=O)C(F)(F)Oc1ccccc1 | 76 to 78 °C |
| CCCC(C)=CC(=O)O | 33 to 35 °C |
